# Assay results: US10639345B2, “Compositions for preserving photoreceptor cells, retinal pigment epithelial cells, or visual function” (Massachusetts Eye and Ear Infirmary, priority 2010, dated 2020)
# Where a SMILES comes first, the peptide text is derived from it. The star is where a group is joined. Cbz = O=C(OCc1ccccc1)*; CH2F = FC*
# How the values were obtained:
# photoreceptors [1] = assay: Poly I:C-induced dry AMD model, TUNEL-positive cells in ONL; assay type: in vivo, mice; conditions: compared with vehicle
# Description: In this example, the mechanism of photoreceptor cell death in dry AMD was investigated using a polyinosinic:polycytidylic acid (Poly I:C)-induced dry AMD model (Yang et al. (2009) NEJM 359(14):1456-63). Poly I:C is a synthetic double-stranded RNA (dsRNA) analog that activates toll-like receptor 3 (TLR3) signaling (FIG. 20A). Furthermore, dsRNA are known to exist in the drusen of human AMD patients. As depicted in FIG. 20A, activation of the TLR3 signaling results in activation of RIP-1 kinase pathway. […] In the experiments described herein, 2-3 μl of Poly I:C (1 mg/ml) was injected into the subretinal space of the eye (e.g., approximately 2-3 μg of Poly I:C was administered to the eye) to induce AMD.
# The thickness of the ONL was determined by the National Institutes of Health ImageJ software. […] Specifically, the number of TUNEL-positive cells in the RIP-3−/− mice treated with poly I:C was at least three fold less than control mice consistent with RIP-3 playing a role in mediating programmed necrosis in AMD (FIG. 22B).
# To determine the effect of Nec-1 and a pan-caspase inhibitor in the treatment of AMD, TUNEL assay was performed to assess photoreceptor cell death in the poly I:C induced AMD model. […] The thickness of ONL was also measured.
# photoreceptors [2] = assay: In vivo propidium iodide staining of photoreceptors after retinal detachment, wild-type retina; set-up: species or system mouse; conditions: three days after retinal detachment
# Description: In vivo propidium iodide (PI) staining was performed by injecting 5 μl of PI (50 μg/ml) into the subretinal space three days after retinal detachment. After two hours, the eyes were enucleated and 10 μm thick cryosections were cut, air-dried, and fixed in 100% ethanol. DAPI was used to counterstain the nuclei. The center of the detached retina was photographed by fluorescence microscope, and the number of PI-positive cells in ONL was analyzed by ImageJ software.
# (*, P<0.05; **, P<0.01; scale bar, 100 μm.)
# AIF = AIF nuclear translocation (AIF/TUNEL double staining) after retinal detachment; assay type: in vivo; conditions: three days after retinal detachment
# Description: Immunohistochemistry (IHC) was performed as previously reported (Murakami Y et al. (2008) AM J PATHOL 173:1326-1338). Rabbit anti-AIF antibody (1:100; Cell Signaling Technology, Danvers, Mass.) was used as the primary antibody. The specimens were imaged by confocal microscopy using the Leica HCX APOL40× lens.
# (§1) Immunofluorescence was performed as previously reported (Hisatomi et al. (2008) J CLIN INVEST 118:2025-2038. The enucleated eyes were frozen in OCT compound (Sakura Finetechnical Co., Tokyo, Japan). Five μm-thick sections were cut, air dried and fixed in cold acetone for 10 minutes. Rabbit anti-AIF antibody (1:100; Cell Signaling Technology, Danvers, Mass.) was used as the primary antibody and incubated at 4° C. overnight. A non-immune serum was used as a negative control. Alexa Fluor 488-conjugated goat anti-rabbit IgG was used as the secondary antibody and incubated at room temperature for one hour. The specimens were imaged by confocal microscopy using the Leica HCX APOL40× lens.
# Apoptosis-inducing factor (AIF) is a caspase-independent inducer of cell death, which is released from the mitochondria and translocates into the nuclei during cell death (Susin S A et al. (1999) NATURE 397:441-446). […]
# [3] = tested on: CD11b-positive macrophage/microglia; assay: CD11b immunofluorescence after retinal detachment in WT mice; assay type: in vivo
# Description: as §1, with “Rat anti-CD11b (1:50; BD Biosciences, San Diego, Calif.)” for “Rabbit anti-AIF antibody (1:100; Cell Signaling Technology, Danvers, Mass.)”, “nonimmune” for “non-immune”, “594-conjugated” for “488-conjugated”, “anti-rat” for “anti-rabbit”, “IgG (Invitrogen, Carlsbad, Calif.)” for “IgG”
# FIG. 11C-D show immunofluorescence for CD11b (FIG. 11C) and quantification of CD11b-positive macrophage/microglia (FIG. 11D) in WT and RIP-3−/− retina after retinal detachment.
# photoreceptors [4] = assay: TUNEL-positive photoreceptors in ONL after experimental retinal detachment; assay type: in vivo, rat; conditions: day three after retinal detachment; subretinal Z-VAD 300 μM and/or Nec-1 400 μM at detachment
# [5] = tested on: carbonyl adducts of proteins; assay: Protein carbonyl ELISA (oxidative retinal damage) after retinal detachment; assay type: in vivo; conditions: day three after retinal detachment, wild type
# Description: Recent studies reported that RIP kinases regulate downstream ROS production during programmed necrosis (Cho Y S et al. (2009) CELL 137:1112-1123; Zhang D W et al. (2009) SCIENCE 325:332-336; Kim et al. (2007) MOL CELL 26:675-687). ELISA for carbonyl adducts of proteins was used to examine oxidative retinal damage following retinal detachment. Specifically, the amounts of protein carbonyls were determined by using OxiSelect™ Protein Carbonyl ELISA Kit (Cell Biolabs, San Diego, Calif.).
structure (smiles),measurement,setting,value
"COC(=O)CC(NC(=O)C(C)NC(=O)C(NC(=O)OCc1ccccc1)C(C)C)C(=O)CF (stereo not drawn) [Z-VAD, Benzyloxycarbonyl-Val-Ala-Asp(OMe)-fluoromethylketone] (Cbz-Val-Ala-Asp(OMe)-CH2F; configuration not given here)",number of TUNEL-positive cells in ONL,photoreceptors [1],slight effect
same,number of PI-positive photoreceptors in the ONL,photoreceptors [2],817.4±104.2 cells/mm^2
same,AIF/TUNEL-double positive cells (AIF nuclear translocation),AIF,1021.9±233.9 cells/mm^2
same,infiltration of CD11b-positive cells (immunofluorescence),[3],significantly increased infiltration
same,number of TUNEL-positive cells in the ONL,photoreceptors [4],1134.7±297.5 cells/mm^2
same,carbonyl contents per mg protein,[5],significant increase of carbonyl contents
